pIC50: −log10 of the molar value. Where two headings read alike, the source gives them in different places.

For one assay, the system named is NCI-H1703 cells. Briefly: GLS Cell Proliferation Assay (NCI-H1703 cell proliferation). Type of assay: cell-based. From the text:
(§1) The following assays were used to measure the effects of the compounds described herein: a) GLS Enzyme Potency Assay; b) GLS Cell Potency Assay; c) GLS Cell Proliferation Assay. During the description of the assays, generally: • i. The following abbreviations have been used: CO2=Carbon dioxide; DMEM=Dulbecco's Modified Eagle Medium; DMSO=Dimethyl sulphoxide; EDTA=Ethylenediaminetetraacetic acid; EGTA=Ethylene glycol tetraacetic acid; FCS=Foetal calf serum; h=Hour(s); NBS=Non-binding surface; SDS=Sodium dodecyl sulphate; TRIS=Tris(Hydroxymethyl)aminomethane. • ii. IC50 values were calculated using a smart fitting model in Genedata.
Assay c): GLS Cell Proliferation Assay
The ability of compounds to inhibit cell growth was measured using a 384 well plate NCI-H1703 cell proliferation assay. NCI-H1703 cells were grown in phenol red free RPMI1640, 10% FCS and 2 mM glutamine and seeded at a density of 750 cells per well in 40 μl of growth medium into clear-bottom 384 well assay plates (Corning product code 3712) and incubated for 24 h at 37° C., 5% CO2. […] DMSO concentration was maintained at 0.3% by back filling with DMSO solution. Plates were incubated for 5 days at 37° C., 5% CO2, Sytox Green and Saponin added to final concentration of 2 μM and 0.25% respectively and incubated for 6 h prior to analysis. […] IC50 values were calculated by curve fitting to max inhibition of day zero growth using GeneData software analysis.

The next assay concerns the target GLS1 (Homo sapiens (Human), UniProt O94925). Briefly: GLS Enzyme Potency Assay (Glutamate Oxidase/AmplexRed coupled assay). Type of assay: biochemical. To be noted: 6His tagged GLS protein (amino acids 63-669), recombinant; read-out: Assay a) enz IC50.
Description: as §1
Assay a): GLS Enzyme Potency Assay
A Glutamate Oxidase/AmplexRed coupled assay was used to measure the ability of compounds to bind to and inhibit the activity of GLS1 in vitro. […] GLS1 was diluted to 2× working concentration and incubated at room temperature to allow the tetrameric/dimeric forms to reach steady state. Assay measurements were performed in buffer comprising 50 mM TRIS pH 7.8, 100 mM NaPO4, pH 7.8, 0.001% v/v Tween20. Purified recombinant GLS1 protein was diluted in assay buffer to 12 nM and pre-incubated at room temperature for 30 minutes. […] DMSO concentration was maintained at 2% by back filling with DMSO solution. 3 μL of diluted GLS1 protein (12 nM) was then dispensed into each well using a BioRaptr automated dispenser (Beckman-Coulter) and incubated for 15 minutes at room temperature. 3 μL of 100 mM glutamine diluted in assay buffer was then added and the reaction incubated at room temperature for 60 minutes. […] An artefact version of the assay where the 6His tagged GLS protein and glutamine were replaced with assay buffer was also used to rule out non specific effects on the assay components.

Assay [1] has as its target cellular GLS activity in PC3 cells (Homo sapiens (Human), UniProt O94925). The assay is described as follows: GLS Cell Potency Assay (PC3 coupled assay measuring cellular glutamate depletion). Type of assay: cell-based. To be noted: PC3 cells, 6 h incubation, glutamate depletion; read-out: Assay b) GLS cell MOA Mean IC50.
Description: as §1
Assay b): GLS Cell Potency Assay
Compounds were assessed for their potential to inhibit cellular GLS activity by use of a PC3 coupled assay measuring cellular glutamate depletion. […] DMSO concentration was maintained at 0.3% by back filling with DMSO solution. PC3 cells were grown in phenol free DMEM, 10% dialyzed FCS, 2 mM glutamine and following dispersal by trypsinisation were plated at 5.6×10^3 cells per well in 40 μl of growth medium directly into the 384 well assay plates containing dispensed compound. After incubation for 6 h at 37° C., 5% CO2 growth media was aspirated and cells lysed in 15 μl of buffer containing 10 mM TRIS pH7.4, 100 mM NaCl, 1 mM EDTA, 1 mM EGTA, 1 mM NaF, 20 mM Na4P2O7, 2 mM Na3VO4, 1% Triton X-100, 10% glycerol, 0.1% SDS and 0.5% deoxycholate.

Setting [2] is: NCI-H1703 cells, 5 days; read-out: Assay c) Prolif Mean IC50.
Where [3] appears, read: Homo sapiens, NCI-H1703, 120 h, NCI-H1703 cells, 5 days; read-out: Assay c) Prolif Mean IC50.

Chain of cellular GLS activity in PC3 cells (O94925 73-669): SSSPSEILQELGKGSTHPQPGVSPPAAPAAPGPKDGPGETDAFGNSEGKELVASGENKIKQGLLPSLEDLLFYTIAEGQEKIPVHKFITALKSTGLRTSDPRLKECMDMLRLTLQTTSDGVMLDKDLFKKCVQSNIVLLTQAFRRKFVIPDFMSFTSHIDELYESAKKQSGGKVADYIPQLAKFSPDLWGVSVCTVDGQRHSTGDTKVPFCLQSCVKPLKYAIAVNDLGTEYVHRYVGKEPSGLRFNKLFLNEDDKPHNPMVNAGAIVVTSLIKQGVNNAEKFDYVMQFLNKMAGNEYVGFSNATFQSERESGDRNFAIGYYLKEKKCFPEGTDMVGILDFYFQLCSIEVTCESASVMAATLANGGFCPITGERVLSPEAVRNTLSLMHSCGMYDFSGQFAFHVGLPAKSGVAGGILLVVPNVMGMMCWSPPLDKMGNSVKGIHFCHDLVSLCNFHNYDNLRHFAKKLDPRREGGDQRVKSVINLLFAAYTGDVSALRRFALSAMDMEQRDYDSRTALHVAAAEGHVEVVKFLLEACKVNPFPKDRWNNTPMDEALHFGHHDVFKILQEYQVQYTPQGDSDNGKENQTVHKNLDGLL
Chain of GLS1 (O94925 63-669): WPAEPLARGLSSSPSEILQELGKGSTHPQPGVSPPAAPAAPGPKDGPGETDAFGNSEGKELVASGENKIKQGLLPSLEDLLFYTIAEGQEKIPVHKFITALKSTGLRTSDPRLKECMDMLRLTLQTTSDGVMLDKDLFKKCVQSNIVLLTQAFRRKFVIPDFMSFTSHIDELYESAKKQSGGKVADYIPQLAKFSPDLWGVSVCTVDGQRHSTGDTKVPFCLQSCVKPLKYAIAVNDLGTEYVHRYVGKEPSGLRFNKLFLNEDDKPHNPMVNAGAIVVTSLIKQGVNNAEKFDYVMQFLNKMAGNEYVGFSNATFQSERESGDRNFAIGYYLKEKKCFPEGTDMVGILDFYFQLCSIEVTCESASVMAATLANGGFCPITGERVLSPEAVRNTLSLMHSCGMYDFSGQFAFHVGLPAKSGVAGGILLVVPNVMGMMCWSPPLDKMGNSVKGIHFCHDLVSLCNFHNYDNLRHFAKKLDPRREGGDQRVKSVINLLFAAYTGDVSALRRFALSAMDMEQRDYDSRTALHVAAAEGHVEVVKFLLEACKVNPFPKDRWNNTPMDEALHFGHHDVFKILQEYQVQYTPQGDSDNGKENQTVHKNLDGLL

In the case of `COC(C(=O)Nc1nnc(N[C@@H]2CCN(c3ccc(C)nn3)C2)s1)c1cccc(N2CC(F)C2)c1` (single isomer, unassigned) [Example 35], the figures for the pIC50 (with NCI-H1703 cells (setting [2]); on GLS1; in assay [1]) were 8.04, 7.11 and 8.92, respectively.
As to `COC(C(=O)Nc1nnc(N[C@@H]2CCN(c3ccc(C)nn3)C2)s1)c1cccc(N2CC(F)C2)c1` (single isomer, unassigned) [Example 36], the pIC50 was 6.40 in the assay on NCI-H1703 cells (setting [2]), 6.21 at GLS1 and 7.66 in assay [1].
For `COc1cc(OC)cc(C(OC)C(=O)Nc2nnc(N[C@@H]3CCN(c4cccnn4)C3)s2)c1` (single isomer, unassigned) [Example 43], in that order: 8.65, 7.70 and 9.53.
Regarding `COc1cc(OC)cc(C(OC)C(=O)Nc2nnc(N[C@@H]3CCN(c4cccnn4)C3)s2)c1` (single isomer, unassigned) [Example 44], the pIC50 is 7.23 with NCI-H1703 cells (setting [2]), 7.32 at GLS1 and 8.05 in assay [1].
With `COc1cc(OC)cc([C@H](OC)C(=O)Nc2nnc(N[C@@H]3CCN(c4cccnn4)C3)s2)c1` [Example 21(a), (2S)-2-(3,5-Dimethoxyphenyl)-2-methoxy-N-[5-[[(3R)-1-pyridazin-3-ylpyrrolidin-3-yl]amino]-1,3,4-thiadiazol-2-yl]acetamide], the figures for the pIC50 (in the assay with NCI-H1703 cells (setting [3]); at GLS1; in assay [1]) were 8.65, 7.70 and 9.53, respectively.
Turning to `COc1cc(OC)cc([C@@H](OC)C(=O)Nc2nnc(N[C@@H]3CCN(c4cccnn4)C3)s2)c1` [Example 21(b), (2R)-2-(3,5-Dimethoxyphenyl)-2-methoxy-N-[5-[[(3R)-1-pyridazin-3-ylpyrrolidin-3-yl]amino]-1,3,4-thiadiazol-2-yl]acetamide], the values for the pIC50 (with NCI-H1703 cells (setting [3]); on GLS1; in assay [1]) were 7.23, 7.32 and 8.05, respectively.
With `COc1cc(OC)cc(C(OC)C(=O)Nc2nnc(N[C@@H]3CCN(c4cccnn4)C3)s2)c1` (stereo partly drawn) [Example 23, 2-(3,5-dimethoxyphenyl)-2-methoxy-N-[5-[[(3R)-1-pyridazin-3-ylpyrrolidin-3-yl]amino]-1,3,4-thiadiazol-2-yl]acetamide], the pIC50 is 7.23 in the assay on NCI-H1703 cells (setting [3]), 7.32 on GLS1 and 8.05 in assay [1].
`COc1cc(OC)cc(C(OC)C(=O)Nc2nnc(N[C@@H]3CCN(c4ccc(F)nn4)C3)s2)c1` (stereo partly drawn) [Example 26, 2-(3,5-dimethoxyphenyl)-N-[5-[[(3R)-1-(6-fluoropyridazin-3-yl)pyrrolidin-3-yl]amino]-1,3,4-thiadiazol-2-yl]-2-methoxy-acetamide]: the figures for the pIC50 (in the assay on NCI-H1703 cells (setting [3]); at GLS1; in assay [1]) were 8.38, 7.63 and 9.48, respectively.
On to `COC(C(=O)Nc1nnc(N[C@@H]2CCN(c3cccnn3)C2)s1)c1ccc(F)c(N2CC(F)(F)C2)c1` (stereo partly drawn) [Example 37, 2-[3-(3,3-difluoroazetidin-1-yl)-4-fluoro-phenyl]-2-methoxy-N-[5-[[(3R)-1-pyridazin-3-ylpyrrolidin-3-yl]amino]-1,3,4-thiadiazol-2-yl]acetamide], for which the pIC50 with NCI-H1703 cells (setting [2]) was 7.68; at GLS1, 6.83; in assay [1], 9.25.
Consider `COC(C(=O)Nc1nnc(N[C@@H]2CCN(c3ccc(C)nn3)C2)s1)c1cccc(N2CC(F)(F)C2)c1` (stereo partly drawn) [Example 39, 2-[3-(3,3-difluoroazetidin-1-yl)phenyl]-2-methoxy-N-[5-[[(3R)-1-(6-methylpyridazin-3-yl)pyrrolidin-3-yl]amino]-1,3,4-thiadiazol-2-yl]acetamide], for which the negative-log IC50 (pIC50) is 8.23 in the assay on NCI-H1703 cells (setting [2]), 6.89 at GLS1 and 9.39 in assay [1].

The values above are taken from patent US10323028B2, “1,3,4-thiadiazole compounds and their use in treating cancer” (AstraZeneca AB, priority 2015, dated 2019).
